This note sets out measurements from patent publication US7109014B1, “Diglycosidase isolated from microorganisms” (Amano Enzyme Inc., priority 1998, dated 2006).

In series [1] the test system is Aspergillus fumigatus IAM 2046. The experiment in a line: Effects of inducers on the production of diglycosidase. It counts as cell-based. As to conditions: for activity at 0.1 %: Aspergillus fumigatus, IAM2046, 144 h, read-out: Inducing ability (%). The procedure:
Measurement of the activity was carried out using an automatic chemical analyzer (TBA-30R, manufactured by TOSHIBA CORP.). A 30 μl portion of each enzyme sample was mixed with 200 μl of acetate buffer solution (pH 5.5) containing 2 mM of p-nitrophenyl (pNP) primeveroside as the disaccharide glycoside substrate to carry out the reaction at 40° C. and at a cycle time of 22.5 seconds, for 9.75 minutes, and then the reaction solution was mixed with 250 μl of sodium carbonate to measure absorbance at 412 nm. Measurement of the sample blank was carried out in the same manner using 20 mM acetate buffer (pH 5.5) instead of the substrate solution.
Using Aspergillus fumigatus IAM 2046, effects of inducers on the production of diglycosidase were examined. Aspergillus fumigatus IAM 2046 was cultured for 6 days in a culture medium (2% soybean flour, 0.3% sodium chloride, 0.1% KH2PO4, 0.05% MgSO4.7H2O, 3% soluble starch) supplemented with 0.1% of each of various saccharides, and the diglycosidase activity was measured.

The nature of series [2]: Optimum pH of diglycosidase. It counts as biochemical. On the procedure:
Its optimum pH was measured in the following manner. A 400 μl portion of 2 mM pNP-primeveroside solution which had been adjusted to a respective pH value of from pH 2 to 5 with 20 mM secondary citric acid-HCl buffer was incubated at 37° C. for 5 minutes. Next, this was mixed with 90 μl of the enzyme solution to carry out the reaction at 37° C. for 20 minutes. The reaction was stopped by adding 500 μl of 0.5 M sodium carbonate solution, and the activity measurement was carried out by measuring the absorbance at 420 nm.

A short description of series [3]: Optimum temperature of diglycosidase. It counts as biochemical. As to conditions: pH 2.5, 20 minutes. On the procedure: Its optimum temperature was measured in the following manner. A 400 μl portion of 2 mM pNP-primeveroside solution prepared using 20 mM disodium citric acid-HCl buffer (pH 2.5) was mixed with 90 μl of the enzyme solution to carry out the reaction at 30 to 65° C. for 20 minutes. The reaction was stopped by adding 500 μl of 0.5 M sodium carbonate solution, and the activity was determined by measuring the absorbance at 420 nm.

Series [4] in a line: Thermal stability of diglycosidase (residual activity). As to conditions: pH 8, 1 hour, 30 to 55° C. It counts as physicochemical. The procedure:
Thermal stability of the purified preparation was examined by diluting it 100 times with 20 mM glycine NaCl—NaOH buffer (pH 8), treating the dilution at each temperature of from 30 to 55° C. for 1 hour and then measuring the residual activity. As a result, the activity was stable at a temperature of 50° C. or below.

The nature of series [5]: Release of primeverose from pNP-primeveroside by TLC. It counts as biochemical. The note with it: 0.3 AU purified enzyme, 37° C., 24 hours. The procedure: Each of the crude enzyme solutions obtained in Examples 1 and 2 was concentrated using an ultrafiltration membrane having a molecular weight cutoff of 6,000. Next, 1 ml of the concentrated solution was mixed with 1 ml of a 5 mg/ml pNP-primeveroside solution which had been prepared using 20 mM phosphate buffer (pH 6.0), and the mixture was incubated at 37° C. Samples were collected 1, 2, 4, 24 and 48 hours thereafter to confirm release of primeverose by a thin layer chromatography (TLC).
A 0.3 AU portion of the purified enzyme solution obtained in Example 6 and the aforementioned pNP-primeveroside were incubated at 37° C. for 24 hours to examine release of disaccharide by TLC. […] Such a spot was not found by the heat-treated purified enzyme solution used as a control.

A short description of series [6]: Release of disaccharide and formation of aroma from eugenyl primeveroside. It counts as biochemical. As to conditions: 0.3 AU purified enzyme, 37° C., 24 hours. On the procedure: eugenyl primeveroside solution adjusted to 5 mg/ml with 20 mM phosphate buffer (pH 6.0), the mixture was incubated at 37° C. for 24 hours and then the formation of aroma was examined by a sensory test (10 panel). […]
[…] […] These were not found in heat-inactivated enzyme solution.

The nature of series [7]: Release of disaccharide from pigment glycoside by TLC. It counts as biochemical. As to conditions: 5 mg/ml ruberythric acid, 37° C., 24 hours. On the procedure: Release of disaccharide was examined using a disaccharide glycoside, ruberythric acid, as the substrate. Ruberythric acid was prepared by adsorbing a water extract of Rubia tinctorum L. root powder for staining use (available from Tanaka Senshoku Ten) to HP-20 column, washing the column with 50% methanol, and then eluting the compound with 100% methanol and evaporating the eluate to dryness using an evaporator. A substrate prepared by dissolving the thus recovered ruberythric acid in a phosphate buffer to a concentration of 5 mg/ml was mixed with the crude enzyme solution (0.3 AU) shown in Example 4 or the purified enzyme solution shown in Example 6 and incubated at 37° C. for 24 hours, and then the reaction solution was analyzed by TLC.

A short description of series [8]: Sugar transfer in disaccharide unit by diglycosidase. As to conditions: 55° C., 6 hours. It counts as biochemical. On the procedure:
The purified enzyme of Example 6 was diluted with deionized water to adjust the activity to E1.0 AU/ml, and acetonitrile ([…]) containing 2.5% phenethyl alcohol, 20 mM acetate buffer (250 μl) containing 10% primeverose and the enzyme solution (50 μl) were mixed to carry out the reaction at 55° C. The reaction was completed after 6 hours and the reaction solution was mixed with 500 μl of diethyl ether, stirred and then centrifuged to remove free aglycon which was transferred into the ether layer. By applying the water layer to a Diaion HP-20 column and passing purified water through the column, free primeverose was removed. The disaccharide glycoside adsorbed to the resin was eluted with methanol and concentrated to dryness. This was dissolved in 100 μl of deionized water, and a 20 μl portion thereof was spotted on a TLC plate to detect the reaction product (the developing solvent was ethyl acetate:acetic acid:deionized water=3:1:1, acetic acid:methanol=1:4 solution was sprayed thereto after the development and allowed to stand at 105° C. for 10 minutes).

[9] abbreviates: medium supplemented with 0.1% of saccharide, cultured 6 days, diglycosidase activity, not added = 100.

Structures can show the parent of a compound that is named as a salt. Where two headings read alike, the source gives them in different places.

Consider Maltotriose, for which the “Inducing ability (%)” value in series [1] (setting [9]) was 171%.
Still for that read-out and setting: the figure for `OC[C@H]1O[C@H](OC[C@H]2OC(O)[C@H](O)[C@@H](O)[C@@H]2O)[C@H](O)[C@@H](O)[C@@H]1O` (some centres unmarked) [Isomaltose] is 145%.
On to `OC[C@@H](O)C(O)[C@H](O)CO` [Arabitol], for which the “Inducing ability (%)” value in series [1] (setting [9]) is given as 112%.
With `O=C(CO)[C@@H](O)[C@H](O)[C@H](O)CO` [Fructose], in series [1], the activity at 0.1 % came out at 143%.
With Gentiobiose, in series [1] (0.1% saccharide, 6 days), the “inducing ability / producing ability of diglycosidase (in words)” value is recorded as “markedly high inducing ability”. Further, the “Inducing ability (%)” value in series [1] (setting [9]) was 211%.
For `OC[C@@H](O)[C@H](O)[C@H](O)[C@@H](O)CO` [Galactitol], in series [1] (setting [9]), the activity at 0.1 % is 142%.
As for `OC[C@@H](O)[C@@H](O[C@H]1O[C@H](CO)[C@@H](O)[C@H](O)[C@H]1O)[C@H](O)[C@@H](O)CO` [Maltitol], the “Inducing ability (%)” value in series [1] (setting [9]) was 142%.
With `OC[C@H]1O[C@H](O[C@H]2O[C@H](CO)[C@@H](O)[C@H](O)[C@H]2O)[C@H](O)[C@@H](O)[C@@H]1O` [Trehalose], the activity at 0.1 % in series [1] (setting [9]) amounted to 113%.
Same read-out and setting: as for `O=C[C@H](O)[C@@H](O)[C@@H](O)[C@H](O)CO` [Galactose], the figure is 125%; as for `OC[C@H]1O[C@@](CO)(O[C@H]2O[C@H](CO)[C@@H](O)[C@H](O)[C@H]2O)[C@@H](O)[C@@H]1O` [Sucrose], 116%.
As for `N[C@H]1C(O)O[C@H](CO)[C@@H](O)[C@@H]1O` (some centres unmarked) [Glucosamine hydrochloride], the activity at 0.1 % in series [1] (setting [9]) is 157%.
With `OC[C@H]1O[C@H](O[C@H]2[C@H](O)[C@@H](O)C(O)O[C@@H]2CO)[C@H](O)[C@@H](O)[C@@H]1O` (mixture of isomers) [Maltose], the activity at 0.1 % in series [1] (setting [9]) came out at 136%.
On to `C[C@H](O)[C@H](O)[C@@H](O)[C@@H](O)C=O` [Rhamnose], for which the activity at 0.1 % in series [1] (setting [9]) came out at 129%.

B1: diglycosidase derived from Aspergillus fumigatus: purified enzyme preparation of diglycosidase from Aspergillus fumigatus IAM 2046, single band of 47 kDa, SEQ ID NO: 8 (protein, listed as Aspergillus fumigatus)
chain: AASASAYCSNSAGNYKLSSIAAPVQGAGNPGSESTWQLTVDDTSSGHKQTIVGFGAAVTDATVTSFNTLSASVLQDLLNKLMTPAGANFALMRHTIGASDLSGDPAYTYDDNGGKADPSLSGFNLGDRGTAMAKMLATMKSLQPNLKILGSPWSAPGWMKLNGVLDGNTNNNNLNDGYLTSGGTGSTGYASQFAQYFVKYIQAYKNLGAHVDAITIQNEPLFSSAGYPTMYVYDYESAQLIQNYIGPALASAGLDTEIWAYDHNTDVPSYPQTVLNQAGQYVKSVAWHCYAPNVDWTVLSQFHNTNPGVKQYMTECWTPASGAWHQAADFTMGPLQNWASGVAAWTLGTNAQDGPHLSTGGCATCQGLVTINNGGYTLNTAYYMMAQFSKFMPPGAIVLNGSGSYTYSGGGGIQSVASLNPDGTRTVVIENTFGNDVYVTVTMKSGQKWSGNAPSQSVTTWVLPSA
Consider B1, for which the “activity at pH 3 (in words)” value in series [2] is reported as “sufficient activity”. In addition, the “activity at 60° C.” value in series [3] was found to be 80%. The “temperature at which activity is stable” value in series [4] was not above 50 °C. Also, the “release of disaccharide (TLC)” value in series [5] is on record as “release of a disaccharide was confirmed”. Moreover, in series [6], the “release of disaccharide (TLC)” value is “release of a disaccharide was confirmed”, the “release of eugenol (gas chromatography)” value is recorded as “confirmed” and the “release of eugenol (sensory test)” value is given as “release of eugenol was also confirmed”. The “release of primeverose and alizarin (TLC)” value in series [7] is “release of the disaccharide primeverose and the aglycon alizarin was observed”. The “transfer of disaccharide to phenethyl alcohol (TLC)” value in series [8] was “transfers the diglycoside to phenethyl alcohol and thereby forms a disaccharide glycoside”.
